Reference: PubChem BioAssay AID328 (DTP/NCI, 2004)
Toxic doses and inconclusive results are not listed.

System: BDF1 mice, P388 leukemia ip, median survival T/C
Assay: NCI In Vivo Anticancer Drug Screen. Data for tumor model P388 Leukemia (intraperitoneal) in B6D2F1 (BDF1) mice
Settings: endpoint: median survival time, higher = longer survival
Description: The antitumor activity of compounds was measured in mice bearing transplantable tumors. Survival or tumor size were measured and the results are expressed as the measurement made in the treated group (T) divided by the measurement made in the vehicle treated control group (C). The tumor model used in this assay is P388 Leukemia (intraperitoneal) in B6D2F1 (BDF1) mice

`CCCCCC(CN(C)C)C(=O)/C=C/c1c(Cl)cccc1Cl` (stereo not drawn) was tested, and the T/C (dose: 3.12 mg/kg/injection, schedule: Q04DX003 (ip), vehicle: Klucel (hydroxypropylcellulose) (HPC)) was 104 % of control, the T/C (dose: 6.25 mg/kg/injection, schedule: Q01DX009 (ip), vehicle: Klucel (hydroxypropylcellulose) (HPC)) was 110 % of control and the T/C (dose: 6.25 mg/kg/injection, schedule: Q04DX003 (ip), vehicle: Klucel (hydroxypropylcellulose) (HPC)) was 109 % of control. The T/C (dose: 12.5 mg/kg/injection, schedule: Q04DX003 (ip), vehicle: Klucel (hydroxypropylcellulose) (HPC)) was 104 % of control, the T/C (dose: 18.0 mg/kg/injection, schedule: Q04DX003 (ip), vehicle: Klucel (hydroxypropylcellulose) (HPC)) was 105 % of control and the T/C (dose: 28.0 mg/kg/injection, schedule: Q04DX003 (ip), vehicle: Klucel (hydroxypropylcellulose) (HPC)) was 115 % of control. The T/C (dose: 40.0 mg/kg/injection, schedule: Q01DX001 (ip), vehicle: saline) was 109 % of control, the T/C (dose: 40.0 mg/kg/injection, schedule: Q04DX003 (ip), vehicle: Klucel (hydroxypropylcellulose) (HPC)) was 90 % of control and the T/C (dose: 65.0 mg/kg/injection, schedule: Q01DX001 (ip), vehicle: saline) was 104 % of control.
In the case of `Cn1cnc([N+](=O)[O-])c1Sc1ncnc2nc[nH]c12`, the T/C (dose: 44.0 mg/kg/injection, schedule: Q04DX003 (ip), vehicle: saline sonified) is reported as 110 % of control, the T/C (dose: 66.0 mg/kg/injection, schedule: Q04DX003 (ip), vehicle: saline sonified) is reported as 120 % of control and the T/C (dose: 150.0 mg/kg/injection, schedule: Q04DX003 (ip), vehicle: saline sonified) is reported as 175 % of control. The T/C (dose: 200.0 mg/kg/injection, schedule: Q01DX009 (ip), vehicle: saline) was 86 % of control and the T/C (dose: 400.0 mg/kg/injection, schedule: Q04DX003 (ip), vehicle: saline sonified) was 109 % of control.
With `C/C=C1\CCC2C(=C1C)CC1C2CC=C2CC(OC(C)=O)CCC21C` (stereo not drawn) the T/C (dose: 100.0 mg/kg/injection, schedule: Q01DX009 (ip), vehicle: Klucel (hydroxypropylcellulose) (HPC)) was 115 % of control, the T/C (dose: 200.0 mg/kg/injection, schedule: Q01DX009 (ip), vehicle: Klucel (hydroxypropylcellulose) (HPC)) was 120 % of control and the T/C (dose: 400.0 mg/kg/injection, schedule: Q01DX009 (ip), vehicle: Klucel (hydroxypropylcellulose) (HPC)) was 105 % of control.
With `COc1cc(C[C@H]2c3cc(OC)c(OC)cc3CCN2C)c(Oc2cc3c(cc2OC)-c2c(OC)c(OC)cc4c2[C@H](C3)N(C)CC4)cc1OC` the T/C (dose: 9.0 mg/kg/injection, schedule: Q01DX010 (ip), vehicle: other) was 90 % of control, the T/C (dose: 12.0 mg/kg/injection, schedule: Q01DX005 (ip), vehicle: other) was 95 % of control and the T/C (dose: 12.0 mg/kg/injection, schedule: Q01DX010 (ip), vehicle: other) was 100 % of control. The T/C (dose: 12.5 mg/kg/injection, schedule: Q01DX010 (ip), vehicle: other) was 109 % of control, the T/C (dose: 18.0 mg/kg/injection, schedule: Q04DX003 (ip), vehicle: other) was 95 % of control and the T/C (dose: 18.75 mg/kg/injection, schedule: Q01DX010 (ip), vehicle: other) was 118 % of control. The T/C (dose: 24.0 mg/kg/injection, schedule: Q01DX005 (ip), vehicle: other) was 90 % of control, the T/C (dose: 24.0 mg/kg/injection, schedule: Q01DX010 (ip), vehicle: other) was 104 % of control and the T/C (dose: 25.0 mg/kg/injection, schedule: Q01DX010 (ip), vehicle: acetone) was 104 % of control. The T/C (dose: 25.0 mg/kg/injection, schedule: Q01DX010 (ip), vehicle: other) was 104 % of control, the T/C (dose: 27.0 mg/kg/injection, schedule: Q08DX002 (ip), vehicle: other) was 100 % of control and the T/C (dose: 36.0 mg/kg/injection, schedule: Q04DX003 (ip), vehicle: other) was 90 % of control. For the same molecule, the T/C (dose: 37.5 mg/kg/injection, schedule: Q01DX010 (ip), vehicle: carboxymethylcellulose (CMC)) was 100 % of control, the T/C (dose: 37.5 mg/kg/injection, schedule: Q01DX010 (ip), vehicle: other) was 104 % of control and the T/C (dose: 48.0 mg/kg/injection, schedule: Q01DX005 (ip), vehicle: other) was 100 % of control. The T/C (dose: 48.0 mg/kg/injection, schedule: Q01DX010 (ip), vehicle: other) was 104 % of control, the T/C (dose: 50.0 mg/kg/injection, schedule: Q01DX010 (ip), vehicle: acetone) was 109 % of control and the T/C (dose: 50.0 mg/kg/injection, schedule: Q01DX010 (ip), vehicle: clinical formulation) was 109 % of control. The T/C (dose: 50.0 mg/kg/injection, schedule: Q01DX010 (ip), vehicle: other) was 120 % of control, the T/C (dose: 54.0 mg/kg/injection, schedule: Q08DX002 (ip), vehicle: other) was 95 % of control and the T/C (dose: 72.0 mg/kg/injection, schedule: Q04DX003 (ip), vehicle: other) was 100 % of control. For the same molecule, the T/C (dose: 75.0 mg/kg/injection, schedule: Q01DX010 (ip), vehicle: carboxymethylcellulose (CMC)) was 100 % of control, the T/C (dose: 96.0 mg/kg/injection, schedule: Q01DX005 (ip), vehicle: other) was 100 % of control and the T/C (dose: 96.0 mg/kg/injection, schedule: Q01DX010 (ip), vehicle: other) was 109 % of control. For the same molecule, the T/C (dose: 100.0 mg/kg/injection, schedule: Q01DX001 (ip), vehicle: carboxymethylcellulose (CMC)) was 110 % of control, the T/C (dose: 100.0 mg/kg/injection, schedule: Q01DX010 (ip), vehicle: acetone) was 113 % of control and the T/C (dose: 100.0 mg/kg/injection, schedule: Q01DX010 (ip), vehicle: other) was 120 % of control. The T/C (dose: 100.0 mg/kg/injection, schedule: Q04DX002 (ip), vehicle: Klucel (hydroxypropylcellulose) (HPC)) was 100 % of control, the T/C (dose: 108.0 mg/kg/injection, schedule: Q08DX002 (ip), vehicle: other) was 100 % of control and the T/C (dose: 150.0 mg/kg/injection, schedule: Q01DX010 (ip), vehicle: carboxymethylcellulose (CMC)) was 105 % of control. The T/C (dose: 200.0 mg/kg/injection, schedule: Q01DX001 (ip), vehicle: carboxymethylcellulose (CMC)) was 105 % of control, the T/C (dose: 200.0 mg/kg/injection, schedule: Q01DX010 (ip), vehicle: other) was 100 % of control and the T/C (dose: 200.0 mg/kg/injection, schedule: Q04DX002 (ip), vehicle: Klucel (hydroxypropylcellulose) (HPC)) was 91 % of control. For the same molecule, the T/C (dose: 216.0 mg/kg/injection, schedule: Q08DX002 (ip), vehicle: other) was 100 % of control, the T/C (dose: 400.0 mg/kg/injection, schedule: Q01DX001 (ip), vehicle: carboxymethylcellulose (CMC)) was 110 % of control and the T/C (dose: 400.0 mg/kg/injection, schedule: Q04DX002 (ip), vehicle: Klucel (hydroxypropylcellulose) (HPC)) was 100 % of control.
